One assay deals with muscarinic M2 receptor (Homo sapiens (Human), UniProt P08172). Kind of assay: Safety pharmacological profiling: muscarinic M2 receptor ligand binding. As to conditions: compound at 10 μM, in duplicate; ligand binding to cell membranes; read-out: Muscarinic M2 percent inhibition.
In the next assay the target is G9a (Homo sapiens (Human), UniProt Q96KQ7). Kind of assay: G9a AlphaLISA enzymatic activity assay. Format: biochemical.
In assay [1] the target is mu (μ) opiate (OP3) receptor (Homo sapiens (Human), UniProt P35372). The assay can be described thus: biochemical. Format: binding. As to conditions: read-out: Mu Opiate percent inhibition.
[2] abbreviates: G9a AlphaLISA, negative log of the IC50 value in molar.

Like-named read-outs stand apart in the source and are kept apart here.

G9a, sequence (Q96KQ7 whole entry): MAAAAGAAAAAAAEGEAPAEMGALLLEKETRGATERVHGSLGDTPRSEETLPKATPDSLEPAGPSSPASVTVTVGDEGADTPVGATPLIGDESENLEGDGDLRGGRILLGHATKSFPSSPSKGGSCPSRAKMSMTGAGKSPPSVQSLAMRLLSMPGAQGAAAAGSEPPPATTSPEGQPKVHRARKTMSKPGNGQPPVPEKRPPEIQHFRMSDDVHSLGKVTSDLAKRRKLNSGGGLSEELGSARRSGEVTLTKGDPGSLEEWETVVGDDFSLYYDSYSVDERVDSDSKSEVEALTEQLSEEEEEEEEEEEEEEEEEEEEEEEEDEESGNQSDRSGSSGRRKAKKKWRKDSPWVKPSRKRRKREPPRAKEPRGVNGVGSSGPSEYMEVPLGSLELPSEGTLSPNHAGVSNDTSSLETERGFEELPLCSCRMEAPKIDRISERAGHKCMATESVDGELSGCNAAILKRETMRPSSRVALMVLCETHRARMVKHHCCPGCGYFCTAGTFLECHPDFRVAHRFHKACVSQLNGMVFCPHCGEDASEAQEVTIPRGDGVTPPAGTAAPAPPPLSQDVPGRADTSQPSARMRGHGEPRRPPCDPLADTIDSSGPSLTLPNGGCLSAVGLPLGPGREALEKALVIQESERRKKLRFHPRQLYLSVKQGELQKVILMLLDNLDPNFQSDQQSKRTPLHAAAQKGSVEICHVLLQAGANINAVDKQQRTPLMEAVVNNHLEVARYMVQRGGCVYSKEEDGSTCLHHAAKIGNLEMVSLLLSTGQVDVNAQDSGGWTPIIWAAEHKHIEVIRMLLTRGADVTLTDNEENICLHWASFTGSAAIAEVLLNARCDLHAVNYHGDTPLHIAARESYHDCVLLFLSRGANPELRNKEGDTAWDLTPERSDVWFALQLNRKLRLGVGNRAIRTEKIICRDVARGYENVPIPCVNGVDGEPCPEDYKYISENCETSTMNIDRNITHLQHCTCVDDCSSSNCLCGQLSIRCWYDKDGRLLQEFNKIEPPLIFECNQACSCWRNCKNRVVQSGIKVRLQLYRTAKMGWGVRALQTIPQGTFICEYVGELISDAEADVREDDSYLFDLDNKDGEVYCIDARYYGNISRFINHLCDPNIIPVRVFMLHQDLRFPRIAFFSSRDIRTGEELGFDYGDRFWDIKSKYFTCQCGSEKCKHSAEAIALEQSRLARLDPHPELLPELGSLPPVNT
muscarinic M2 receptor, sequence (P08172 whole entry): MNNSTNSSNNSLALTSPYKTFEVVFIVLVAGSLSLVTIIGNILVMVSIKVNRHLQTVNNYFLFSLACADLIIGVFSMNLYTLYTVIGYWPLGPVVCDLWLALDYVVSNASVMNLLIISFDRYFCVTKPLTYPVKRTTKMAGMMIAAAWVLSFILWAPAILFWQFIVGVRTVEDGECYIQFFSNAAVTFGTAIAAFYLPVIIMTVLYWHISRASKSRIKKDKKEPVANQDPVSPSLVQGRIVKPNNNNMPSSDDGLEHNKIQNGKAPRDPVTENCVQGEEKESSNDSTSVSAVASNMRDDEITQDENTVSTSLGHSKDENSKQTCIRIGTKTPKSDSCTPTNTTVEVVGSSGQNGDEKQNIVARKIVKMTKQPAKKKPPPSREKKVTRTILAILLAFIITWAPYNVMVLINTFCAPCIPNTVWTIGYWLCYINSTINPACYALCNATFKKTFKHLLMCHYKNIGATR

Turning to `COc1cc2nc3c(c(NC4CCN(C(C)C)CC4)c2cc1OC)CCC3`, the inhibition at 10 µM on muscarinic M2 receptor amounted to 78%.
Compound `COc1cc2nc3c(c(N[C@@H]4CCCNCC4)c2nc1OC)CCC3` [Example 163, (4R)-N-[2,3-dimethoxy-6H,7H,8H-cyclopenta[b]1,5-naphthyridin-9-yl] azepan-4-amine] displayed a pIC50 at G9a of 6.8.
Take `COc1cc2nc3c(c(N[C@@H]4CCCN(C)C4)c2nc1OC)CCC3` [Example 164, (3R)-N-[2,3-dimethoxy-6H,7H,8H-cyclopenta[b]1,5-naphthyridin-9-yl]-1-methylpiperidin-3-amine]: the pIC50 against G9a (setting [2]) came to 6.2.
Compound `COc1cc2nc3c(c(N[C@@H]4CCCN(C)CC4)c2nc1OC)CCC3` [Example 165, (4R)-N-{2,3-dimethoxy-6H,7H,8H-cyclopenta[b]1,5-naphthyridin-9-yl}-1-methylazepan-4-amine] gave a pIC50 at G9a (setting [2]) of 7.
For `COc1cc2nc3c(c(N[C@H]4CNC[C@@H](C)C4)c2cc1OC)CCC3` [Example 286, (3R,5S)-N-{6,7-dimethoxy-1H,2H,3H-cyclopenta[b]quinolin-9-yl}-5-methylpiperidin-3-amine], at G9a (setting [2]), the pIC50 was 8.
Same read-out and setting: then `COc1cc2nc3c(c(N[C@@H]4CCCCNC4)c2nc1OC)CCC3` [Example 402], with 7.1.
`COc1cc2nc3c(c(NCCNC(C)C)c2cc1OC)CCC3` [Example 403, 6,7-dimethoxy-N-{2-[(propan-2-yl)amino]ethyl}-1H,2H,3H-cyclopenta[b]quinolin-9-amine] gave a pIC50 against G9a (setting [2]) of 7.5.
The same measure, in the same setting: to `COc1cc2nc3c(c(N[C@@H]4CCCCN(C)C4)c2nc1OC)CCC3` [Example 404, (3R)-N-[2,3-dimethoxy-6H,7H,8H-cyclopenta[b]1,5-naphthyridin-9-yl]-1-methylazepan-3-amine] belongs 6.6.
For `[2H]C([2H])([2H])Oc1cc2nc3c(c(N[C@@H]4CCCNC4)c2cc1OC([2H])([2H])[2H])CCC3` [Example 405, (3R)-N-[6,7-di(2H3)methoxy-1H,2H,3H-cyclopenta[b]quinolin-9-yl]piperidin-3-amine], at G9a (setting [2]), the IC50 is 0.0126 µM.
Turning to `CCOc1cc2nc3c(c(N[C@@H]4CCCNC4)c2cc1OCC)CCC3` [Example 406, (3R)-N-[6,7-di(2H3)ethoxy-1H,2H,3H-cyclopenta[b]quinolin-9-yl]piperidin-3-amine], the IC50 on G9a (setting [2]) is over 10 µM.
In the case of `CCOc1cc2nc3c(c(N[C@@H]4CCCNC4)c2cc1OC)CCC3` [Example 407, (3R)-N-{6-ethoxy-7-methoxy-1H,2H,3H-cyclopenta[b]quinolin-9-yl}piperidin-3-amine], the pIC50 at G9a (setting [2]) stood at 7.
For `COc1cc2nc3c(c(N[C@@H]4CNC[C@H](C)C4)c2cc1OC)CCC3` [Example 408, (3S,5R)-N-{6,7-dimethoxy-1H,2H,3H-cyclopenta[b]quinolin-9-yl}-5-methylpiperidin-3-amine], the pIC50 on G9a (setting [2]) worked out at 6.9.
Compound `COc1cc2nc3c(c(N[C@H]4CNC[C@H](C)C4)c2cc1OC)CCC3` [Example 409, (3R,5R)-N-{6,7-dimethoxy-1H,2H,3H-cyclopenta[b]quinolin-9-yl}-5-methylpiperidin-3-amine] yielded a pIC50 against G9a (setting [2]) of 7.9.
The compound `COc1cc2nc3c(c(N[C@H]4CNCC(F)(F)C4)c2cc1OC)CCC3` [Example 410, (3R)-N-{6,7-dimethoxy-1H,2H,3H-cyclopenta[b]quinolin-9-yl}-5,5-difluoropiperidin-3-amine] showed an IC50 at G9a (setting [2]) of over 10 µM.
On to `COc1cc2nc3c(c(NC[C@@H]4C[C@H](F)CN4)c2cc1OC)CCC3` [Example 411, N-{[(2S,4S)-4-fluoropyrrolidin-2-yl]methyl}-6,7-dimethoxy-1H,2H,3H-cyclopenta[b]quinolin-9-amine], for which, on G9a (setting [2]), the pIC50 amounted to 6.3.
On to `COc1cc2nc3c(c(N[C@H]4CNC[C@@H](F)C4)c2cc1OC)CCC3` [Example 412, (3R,5S)-N-{6,7-dimethoxy-1H,2H,3H-cyclopenta[b]quinolin-9-yl}-5-fluoropiperidin-3-amine], for which, on G9a (setting [2]), the negative logarithm of the IC50 (pIC50) stood at 6.5.
`COc1cc2nc3c(c(N[C@@H]4CNCC(F)(F)C4)c2cc1OC)CCC3` [Example 413, (3S)-N-{6,7-dimethoxy-1H,2H,3H-cyclopenta[b]quinolin-9-yl}-5,5-difluoropiperidin-3-amine] gave an IC50 against G9a (setting [2]) of over 10 µM.
At G9a (setting [2]), `COc1cc2nc3c(c(N[C@H]4CNCC(C)(C)C4)c2cc1OC)CCC3` [Example 414, (3R)-N-{6,7-dimethoxy-1H,2H,3H-cyclopenta[b]quinolin-9-yl}-5,5-dimethylpiperidin-3-amine] had a pIC50 of 7.2.
At G9a (setting [2]), `COc1cc2nc3c(c(N[C@@H]4CNCC(C)(C)C4)c2cc1OC)CCC3` [Example 415, (3S)-N-{6,7-dimethoxy-1H,2H,3H-cyclopenta[b]quinolin-9-yl}-5,5-dimethylpiperidin-3-amine] gave an IC50 of over 10 µM.
In the case of `COc1cc2nc3c(c(N[C@H]4CNC[C@H](F)C4)c2cc1OC)CCC3` [Example 416, (3R,5R)-N-{6,7-dimethoxy-1H,2H,3H-cyclopenta[b]quinolin-9-yl}-5-fluoropiperidin-3-amine], on G9a (setting [2]), the pIC50 was found to be 6.9.
In the case of `COc1cc2c(NC(C)C)c3c(nc2cc1OCCCN1CCCC1)CCC3` [drawing 582], the inhibition at 10 µM at muscarinic M2 receptor was determined as 51%.
Consider `CCNc1c2c(nc3cc(OCCCN4CCCC4)c(OC)cc13)CCC2` [drawing 583], for which the inhibition at 10 µM at muscarinic M2 receptor stood at 62%.
Regarding `COc1cc2nc3c(c(NCC4CNC4)c2cc1OC)CCC3` [drawing 585], the inhibition at 10 µM at muscarinic M2 receptor was 65%.
`COc1cc2nc3c(c(N[C@@H]4CCCNC4)c2cc1OC)CCC3` [drawing 586]: the inhibition at 10 µM at muscarinic M2 receptor came to 76%.
Regarding `COc1cc2nc3c(c(NC4CCNCC4)c2cc1OC)CCC3` [drawing 587], at muscarinic M2 receptor, the inhibition at 10 µM worked out at 62%.
With `COc1cc2nc3c(c(N[C@H]4CNC[C@@H](C)C4)c2cc1OC)CCC3` [drawing 588], the inhibition at 10 µM on muscarinic M2 receptor was determined as 75%.
In the case of `COc1cc2nc3c(c(N[C@@H]4CCCCNC4)c2cc1OC)CCC3` [drawing 589], the inhibition at 10 µM on muscarinic M2 receptor worked out at 80%.
On to `COc1cc2c(NC(C)C)c3c(nc2cc1OCCCN1CCCC1)CCC3` [drawing 590], for which the inhibition at 10 µM in assay [1] came out at 92%.
On the same count and under the same terms, then `CCNc1c2c(nc3cc(OCCCN4CCCC4)c(OC)cc13)CCC2` [drawing 591], with 92%; and `COc1cc2nc3c(c(NCC4CNC4)c2cc1OC)CCC3` [drawing 593], with 12%; and `COc1cc2nc3c(c(N[C@@H]4CCCNC4)c2cc1OC)CCC3` [drawing 594], with 44%.
`COc1cc2nc3c(c(NC4CCNCC4)c2cc1OC)CCC3` [drawing 595]: the inhibition at 10 µM in assay [1] stood at 48%.
Same read-out and setting: then `COc1cc2nc3c(c(N[C@H]4CNC[C@@H](C)C4)c2cc1OC)CCC3` [drawing 596], with 23%.
For the compound `COc1cc2nc3c(c(N[C@@H]4CCCCNC4)c2cc1OC)CCC3` [drawing 597], the inhibition at 10 µM in assay [1] was 73%.
“N-[(azetidin-3-yl)methyl]-6,7-dimethoxy-1H,2H,3H-cyclopenta[b]quinolin-9-amine—2HCl [Example 8]” yielded a pIC50 at G9a of 7.27.

By inhibition is commonly meant the percentage by which the read-out fell short of the control. Usually pIC50 stands for the negative decadic logarithm of the IC50, by convention in mol/L. One may read the IC50 as the concentration at which inhibition is half-maximal. A lower IC50 goes with greater potency in that assay.

(Values after patent US11661410B2 (GLOBAL BLOOD THERAPEUTICS, INC., priority 2017, dated 2023).)
